Measured values from patent US20080113900A1, “Pharmaceutical compositions and therapeutic applications for the use of a synthetic vitamin B12 derivative, glutathionylcobalamin” (priority 2006, published 2008).
Values joined by “and” are separate entries in the source; they are usually repeats but may differ in a detail not shown here. Equal entries are not always repeated.

Legend:
[1] = tested on: SK-HEP-1 cells; assay: Effect of high concentrations of NACCbl and GSCbl on SK-HEP-1 cells (MTS assay, 24 hours); type: cell-based, human; conditions: for Cell viability by MTS assay (FIG. 13): SK-HEP-1, 3 replicates
[2] = tested on: SK-HEP-1 cells; assay: Protection of endothelial cells from H2O2-induced cell death (MTS assay); type: cell-based, human; design: key to Cell viability (MTS assay): cell viability as % survival; conditions: for Cell viability (MTS assay): SK-HEP-1, n = 6 replicates
Procedure: The effect of increasing concentrations of NACCbl and GSCbl to protect endothelial cells from the effect of H2O2 was assessed. […] Cell viability was determined by MTS® assay. […] FIG. 3 illustrates that NACCbl and GSCbl protect endothelial cells from the effect of H2O2. […] Cell viability was determined by MTS® assay. […] There was no difference between the protection afforded by NACCbl and that by GSCbl. Both required 100 μM to achieve >80% survival.

[3] = biological target: T1, methionine synthase (Oryctolagus cuniculus, UniProt G1SXW3); conditions: rabbit spleen extracts; cited from earlier work
T1 construct: methionine synthase activity in rabbit spleen extracts; from tissue; host or cells: rabbit spleen extract
T1 sequence (G1SXW3 1-1218): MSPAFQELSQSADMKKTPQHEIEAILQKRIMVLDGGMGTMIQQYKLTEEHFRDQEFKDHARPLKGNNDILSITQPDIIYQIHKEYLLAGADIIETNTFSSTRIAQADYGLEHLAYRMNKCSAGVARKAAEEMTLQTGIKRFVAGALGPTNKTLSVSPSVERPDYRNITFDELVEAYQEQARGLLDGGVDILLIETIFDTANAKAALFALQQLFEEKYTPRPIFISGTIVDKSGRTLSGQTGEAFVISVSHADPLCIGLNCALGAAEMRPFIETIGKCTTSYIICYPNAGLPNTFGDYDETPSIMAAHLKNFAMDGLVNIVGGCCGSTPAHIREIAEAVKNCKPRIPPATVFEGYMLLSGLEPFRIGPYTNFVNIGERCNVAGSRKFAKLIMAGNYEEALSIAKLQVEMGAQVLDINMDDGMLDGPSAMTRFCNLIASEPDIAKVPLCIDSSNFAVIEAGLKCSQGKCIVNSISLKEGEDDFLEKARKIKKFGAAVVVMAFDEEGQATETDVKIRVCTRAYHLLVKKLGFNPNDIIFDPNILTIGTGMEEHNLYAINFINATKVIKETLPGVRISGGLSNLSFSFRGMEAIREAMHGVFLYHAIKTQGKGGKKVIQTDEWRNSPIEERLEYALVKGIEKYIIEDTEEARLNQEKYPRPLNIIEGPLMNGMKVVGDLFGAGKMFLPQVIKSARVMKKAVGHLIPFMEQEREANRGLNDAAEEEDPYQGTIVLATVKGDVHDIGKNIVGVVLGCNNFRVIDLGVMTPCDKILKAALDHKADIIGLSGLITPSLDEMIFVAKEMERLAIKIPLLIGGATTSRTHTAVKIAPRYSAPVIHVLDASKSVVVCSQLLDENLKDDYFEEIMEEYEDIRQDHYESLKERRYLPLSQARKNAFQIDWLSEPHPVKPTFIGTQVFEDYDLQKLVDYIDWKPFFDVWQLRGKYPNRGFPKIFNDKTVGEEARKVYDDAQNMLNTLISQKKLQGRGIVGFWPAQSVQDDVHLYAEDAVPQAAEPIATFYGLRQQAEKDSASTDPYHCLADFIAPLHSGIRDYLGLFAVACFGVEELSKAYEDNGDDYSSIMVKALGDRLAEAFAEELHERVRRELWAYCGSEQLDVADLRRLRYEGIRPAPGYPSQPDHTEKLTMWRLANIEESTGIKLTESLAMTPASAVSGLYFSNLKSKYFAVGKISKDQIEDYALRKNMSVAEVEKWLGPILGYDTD

[4] = tested on: SK-HEP-1 cells; assay: Protection of endothelial cells from homocysteine-induced cell death (MTS assay); type: cell-based, human
Procedure: The effect of a constant concentration of NACCbl and GSCbl to protect cells against variable concentrations of homocysteine was assessed. […] Cell viability was determined by MTS® assay. Data shown in FIG. 4 are representative of means ±SE of 6 independent samples. FIG. 4 illustrates that NACCbl (▪) and GSCbl (▴) protect endothelial cells from the effect of homocysteine. […] Cell viability was determined by MTS® assay. […] There was a decrease in protection as homocysteine concentration increased, but there was still ˜60% survival at 50 μM homocysteine.
The data was normalized (log 2 and log 10) as shown in FIGS. 16 and 17 and Tables 16 and 17, respectively, below.

[5] = tested on: Hsp32; assay: Hsp32 gene expression (RT-PCR, densitometry); type: cell-based, human; conditions: SK-HEP-1; Sn (IX) protoporphyrin 25 μM; Quercitin 15 μM
Procedure: Cells were plated into 6-, 12-, or 24-well cell culture clusters, at 2×10^3, 2×10^5, or 1×10^5 cells per well and incubated until 90% confluent. Treatments were applied as above.
Following incubation, cells were subjected to mRNA extraction followed by cDNA synthesis for each sample under test. Polymerase chain reaction cDNA templates were prepared for simplex PCR protocol. PCR products were then visualized using a UV Transilluminator and images captured using a Kodak ID gel imaging system. Densitometry and statistical analysis was then performed on each gene expression band image using PSP® v 10.0 running under Windows XP®.
mRNA extraction was performed using the Quickprep micro mRNA Purification Kit. Following incubation of cells post-treatment, the media was removed from the cells, adherent cells were re-suspended in 0.4 ml extraction buffer and 0.8 ml elution buffer at 65° C. was added.
A reaction mixture was prepared in individual microcentrifuge tubes containing 2 cDNA synthesis beads, 32 μl of the mRNA solution and 1 μl of pd(N)6. This mixture was incubated at 37° C. in a water bath for 60 minutes. After incubation, 27 μl of RNase-free DEPC treated water was added to each tube to make a total volume 60 μl. cDNA samples were prepared in duplicate. Sample 1 was used immediately in RT-PCR protocol. Sample 2 was prepared for qPCR protocol by the addition of 150 μl of 95% ice-cold ethanol and stored at −20° C.
Microcentrifuge tubes from puReTaq™Ready-To-Go™ PCR Beads containing one PCR bead were labeled for each sample required. Added to the PCR bead were 17 μl of RNase-free DEPC treated water, 1 μl sense primer, 1 μl anti-sense primer and 5 μl of the cDNA solution. RT-PCR conditions were as follows: Hsp70 and β-actin, pre-treatment step, 94° C. for 1 minute, followed by denaturing at 92° C. for 1 minute, annealing at 60° C. for 1 minute and extension at 72° C. for 1 minute. Total cycles, 30, post-treatment was then carried out at 72° C. for 10 minutes. For Hsp32, pre-treatment step, 95° C. for 2 minutes, followed by denaturing at 94° C. for 30 seconds, annealing at 58° C. for 1 minute and extension at 72° C. for 1 minute. Total cycles 45, post treatment was then carried out at 72° C. for 10 minutes. Following RT-PCR, samples were stored at −20° C.
Gels were visualised on a UV Transilluminator. Photographs were stored using a Kodak Digital camera system fitted with a UV filter set connected to a PC. Images were then transferred to the Kodak ID gel imaging system. Densitometry was performed on each gene expression band using PSP™ v10 running under Windows XP®.
Experiments were conducted using Hsp32 and Hsp 70 gene expression as the basis for study. […] The densitometric data are presented as means ±SEM of n=3 separate experiments. *p<0.05 or **p<0.01, treatment vs. control.

[6] = tested on: SK-HEP-1 cells; assay: Protection from homocysteine-induced apoptosis, Caspase-3 activity (apoptosis assay); type: cell-based, human; conditions: 30 μM two hours, then 30 μM homocysteine two hours
Procedure: Caspase 3 is activated when cells undergo apoptosis. Caspase-3 assay is a standard for apoptosis assay. Homocysteine is a known inducer of apoptosis. Cells were cultured in 96-well plates for 24 hours and then treated with reagents under test conditions. Cytotoxic agents, H2O2 and etoposide were added to negative control wells. The assay was performed according to the manufacturer's protocol, as follows: Cells were re-suspended in 100 μl of clear media and 50 μl of Caspase-3 substrate solution was immediately added to each test well. […] Cell viability was determined by MTS® assay. […] Cell viability was determined by MTS® assay.

[7] = Decomposition in PBS at 37° C. monitored by UV/Vis spectrophotometry; type: physicochemical
Procedure: The decomposition of GSCbl, NACCbl, and HcyCbl in PBS at 37° C. was monitored by UV/Vis spectrophotometry.

[8] = tested on: SK-HEP-1 cells; assay: Protection of endothelial cells from H2O2-induced cell death (MTS assay); type: cell-based, human; design: key to Cell viability (MTS assay): cell viability as % survival; conditions: SK-HEP-1, n = 6 replicates
[9] = in vitro; conditions: human, SK-HEP-1 cells
[10] = tested on: SK-HEP-1 cells; assay: Effect of homocysteine and H2O2 on endothelial cell viability (MTS assay); conditions: for Cell viability (MTS assay): SK-HEP-1, 2 hours, n = 6 replicates
[11] = tested on: SK-HEP-1 cells; conditions: 12.5 µM

C/C1=C2N=C(/C=C3N=C(/C(C)=C4\[N-]C(C(CC(N)=O)C4(C)CCC(=O)NCC(C)OP(=O)([O-])OC4C(CO)OC(n5cnc6cc(C)c(C)cc65)C4O)C4(C)N=C1C(CCC(N)=O)C4(C)CC(N)=O)C(CCC(N)=O)C\3(C)C)C(CCC(N)=O)C/2(C)CC(N)=O.NC(CCC(=O)NC(C[S-])C(=O)NCC(=O)O)C(=O)O.[Co+3] (centres unmarked) [GSCbl, Glutathionylcobalamin]
Cell viability by MTS assay (FIG. 13) ([1]; compound conc. 0.61, 24 hours): 2.554 and 2.376 and 2.53
Cell viability by MTS assay (FIG. 13) ([1]; compound conc. 1.22, 24 hours): 2.347 and 2.433 and 2.503
Cell viability by MTS assay (FIG. 13) ([1]; compound conc. 2.441, 24 hours): 2.527 and 2.434 and 2.46
Cell viability by MTS assay (FIG. 13) ([1]; compound conc. 4.882, 24 hours): 2.543 and 2.528 and 2.519
Cell viability by MTS assay (FIG. 13) ([1]; compound conc. 9.765, 24 hours): 2.532 and 2.476 and 2.42
Cell viability by MTS assay (FIG. 13) ([1]; compound conc. 19.531, 24 hours): 2.553 and 2.476 and 2.42
Cell viability by MTS assay (FIG. 13) ([1]; compound conc. 39.062, 24 hours): 2.492 and 2.484 and 2.468
Cell viability by MTS assay (FIG. 13) ([1]; compound conc. 78.125, 24 hours): 2.444 and 2.406 and 2.402
Cell viability by MTS assay (FIG. 13) ([1]; compound conc. 156.25, 24 hours): 2.407 and 2.37 and 2.318
Cell viability by MTS assay (FIG. 13) ([1]; compound conc. 312.5, 24 hours): 2.306 and 2.204 and 2.138
Cell viability by MTS assay (FIG. 13) ([1]; compound conc. 625, 24 hours): 2.197 and 1.912 and 1.787
Cell viability by MTS assay (FIG. 13) ([1]; compound conc. 1250, 24 hours): 1.973 and 1.846 and 1.71
Cell viability by MTS assay (FIG. 13) ([1]; compound conc. 2500, 24 hours): 1.775 and 1.81 and 1.896
Cell viability by MTS assay (FIG. 13) ([1]; compound conc. 5000, 24 hours): 1.728 and 1.67 and 1.623
Cell viability by MTS assay (FIG. 13) ([1]; compound conc. 10000, 24 hours): 1.322 and 1.342 and 1.366
Cell death compared with NACCbl ([1]; above 0.2 mM concentration): caused greater cell death than NACCbl
Difference between protection by NACCbl and by GSCbl ([2]; 25 μM H2O2 24 hours): no difference
Concentration required to achieve >80% survival ([2]; 2 hours, then 25 μM H2O2 24 hours): 100 µM
Protection from H2O2 ([2]; GSCbl 30 μM, above 7.5 μM H2O2): did not provide significant protection
Cell viability (MTS assay) ([2]; compound 30 μM two hours, then H2O2 200 μM a further two hours): 1.326 and 7.153 and 3.6 and 1.942 and 5.921 and 0.7579
Cell viability (MTS assay) ([2]; compound concentration 6.25, 2 hours, then 25 μM H2O2 24 hours): 48.68 and 56.26 and 45.98 and 43.35 and 42.09 and 41.96
Cell viability (MTS assay) ([2]; compound concentration 12.5, 2 hours, then 25 μM H2O2 24 hours): 44.27 and 54.35 and 50.53 and 47.04 and 44.14 and 42.09
Cell viability (MTS assay) ([2]; compound concentration 25, 2 hours, then 25 μM H2O2 24 hours): 41.24 and 45.5863 and 42.23 and 45.26 and 41.7 and 44.99
Cell viability (MTS assay) ([2]; compound concentration 100, 2 hours, then 25 μM H2O2 24 hours): 64.62 (2×) and 77.87 and 71.61 and 72.6 and 76.5481
Cell viability (MTS assay) ([2]; compound concentration 200, 2 hours, then 25 μM H2O2 24 hours): 94.07 and 100.0659 and 102.8327 and 93.87 and 105.5995 and 94.73
Promotion of methionine synthase activity [3]: more active than other cobalamins
Concentration required for >80% survival protection ([4]; 2 hours, then 30 μM homocysteine 24 hours): 50 µM
Protection against homocysteine-induced damage compared with free thiols ([4]; Hcy 30 μM, NAC 45 μM, GSH 100 μM, NACCbl 12.5 μM, GSCbl 15 μM): superior to the free thiols
Mean (FIG. 14a, protection of SK-HEP-1 cells from Hcy in the presence of folate) ([4]; [Hcy] 30 μM, folate 25 μM present, [GSCbl] = 15 μM, [NACCbl] = 12.5 μM, [CNCbl] = 15 μM, [MeCbl] = 12.5 μM, [HOCbl] = 17.5 μM, [NAC] = 45 μM, [GSH] = 100 μM): 2.524
Survival ([4]; compound 30 μM, 50 μM homocysteine): ~60%
Protection from homocysteine-induced cell death ([4]; pre-incubation 30 μM two hours, variable homocysteine two hours): protected cells from homocysteine-induced cell death
Hsp32 gene expression [5]: induce Hsp32
Protection against apoptosis induced by homocysteine [6]: total protection
t1/2 [7]: No decomposition within 20 hours
Cell viability (MTS assay) ([8]; compound 30 μM two hours, then H2O2 0 μM): 99.24 and 102.2264 and 105.5898 and 103.6002 and 104.0265 and 104.5476
Cell viability (MTS assay) ([8]; compound 30 μM two hours, then H2O2 0.781 μM a further two hours): 96.12 and 98.39 and 97.3946 and 98.0578 and 96.02 and 95.31
Cell viability (MTS assay) ([8]; compound 30 μM two hours, then H2O2 1.56 μM a further two hours): 93.56 and 90.81 (2×) and 92.33 and 88.25 and 91.8522
Cell viability (MTS assay) ([8]; compound 30 μM two hours, then H2O2 3.125 μM a further two hours): 40.31 and 91.33 and 87.3046 and 82.33 and 79.77 and 77.59
Cell viability (MTS assay) ([8]; compound 30 μM two hours, then H2O2 6.25 μM a further two hours): 36.52 and 39.7442 and 34.49 and 34.72 and 34.86 and 36.1
Cell viability (MTS assay) ([8]; compound 30 μM two hours, then H2O2 12.5 μM a further two hours): 29.7963 and 32.02 and 36.1 and 32.4 and 29.99 and 33.92
Cell viability (MTS assay) ([8]; compound 30 μM two hours, then H2O2 25 μM a further two hours): 23.54 and 26.53 and 22.93 and 24.44 and 22.03 and 20.42
Cell viability (MTS assay) ([8]; compound 30 μM two hours, then H2O2 50 μM a further two hours): 15.02 and 20.8432 and 18.95 and 13.12 and 15.6324 and 17.62
Cell viability (MTS assay) ([8]; compound 30 μM two hours, then H2O2 100 μM a further two hours): 10.8 and 12.36 and 11.5585 and 9.995 and 6.679 and 8.527
Cell viability (MTS assay) ([8]; compound concentration 3.125, 2 hours, then 25 μM H2O2 24 hours): 20.88 and 30.9 and 21.34 and 26.8116
Cell viability (MTS assay) ([8]; compound concentration 50, 2 hours, then 25 μM H2O2 24 hours): 42.69 and 45.72 and 48.16 and 46.9 and 46.77 and 51.84

OO [H2O2, Hydrogen peroxide]
viability at 2 h, 0.781 µM [9]: 99.4%
viability at 2 h, 1.562 µM [9]: 96.4%
viability at 2 h, 6.25 µM [9]: 32.6%
viability at 2 h, 12.5 µM [9]: 12.4%
viability at 2 h, 25 µM [9]: 3.18%
Concentration achieving greater than 90% death (<10% survival) ([10]; SK-HEP-1, 2 hours): 12.5 µM
Concentration sufficient to kill cultured endothelial cells ([10]; SK-HEP-1, 2 hours, P<0.001): ≥ 3 μm
Cell viability (MTS assay) ([10]; 0.781 μM): 102.4429 and 98.07 and 98.74 and 102.3076 and 99.02
Cell viability (MTS assay) ([10]; 1.562 μM): 96.08 and 96.67 and 98.97 and 85.98
Cell viability (MTS assay) ([10]; 3.125 μM): 46.88 and 52.02 and 50.62 and 52.38 and 82.7345 and 84.54
Cell viability (MTS assay) ([10]; 6.25 μM): 33.89 and 32.31 and 35.2 and 32.54 and 30.46
Cell viability (MTS assay) ([10]; 25 μM): 3.63 (2×) and 3.225 and 3.27 and 3.585
Cell viability (MTS assay) ([10]; 50 μM): 0.4284 and 0.06765 and 0.4735
viability [11]: 11.3% and 10.1% and 11.8% and 11.7% and 12.4%
